Assay results taken from patent US20130310379A1, “MODULATORS OF METHYL MODIFYING ENZYMES, COMPOSITIONS AND USES THEREOF” (CONSTELLATION PHARMACEUTICALS, priority 2010, published 2013).

What follows are molecules tested against EZH2 (Homo sapiens, UniProt Q15910) (assay: EZH2 assay: rPRC2 with biotinylated oligonucleosome substrates and 3H SAM, FlashPlate scintillation counting, IC50). Settings: not given.
Type: biochemical
How it was run: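 rPRC2 (2 nM EZH2) pre-incubated 20 min with compound (80 to 0.16 uM, ten 2-fold steps), then 60 min reaction with 0.2 uM 3H SAM, 0.2 uM biotinylated oligonucleosomes, 3.6 uM H3K27me3 peptide in Tris pH 8.5. SAH/EDTA quench; 4-parameter IC50 fit.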

Chain of EZH2 (Q15910 whole entry): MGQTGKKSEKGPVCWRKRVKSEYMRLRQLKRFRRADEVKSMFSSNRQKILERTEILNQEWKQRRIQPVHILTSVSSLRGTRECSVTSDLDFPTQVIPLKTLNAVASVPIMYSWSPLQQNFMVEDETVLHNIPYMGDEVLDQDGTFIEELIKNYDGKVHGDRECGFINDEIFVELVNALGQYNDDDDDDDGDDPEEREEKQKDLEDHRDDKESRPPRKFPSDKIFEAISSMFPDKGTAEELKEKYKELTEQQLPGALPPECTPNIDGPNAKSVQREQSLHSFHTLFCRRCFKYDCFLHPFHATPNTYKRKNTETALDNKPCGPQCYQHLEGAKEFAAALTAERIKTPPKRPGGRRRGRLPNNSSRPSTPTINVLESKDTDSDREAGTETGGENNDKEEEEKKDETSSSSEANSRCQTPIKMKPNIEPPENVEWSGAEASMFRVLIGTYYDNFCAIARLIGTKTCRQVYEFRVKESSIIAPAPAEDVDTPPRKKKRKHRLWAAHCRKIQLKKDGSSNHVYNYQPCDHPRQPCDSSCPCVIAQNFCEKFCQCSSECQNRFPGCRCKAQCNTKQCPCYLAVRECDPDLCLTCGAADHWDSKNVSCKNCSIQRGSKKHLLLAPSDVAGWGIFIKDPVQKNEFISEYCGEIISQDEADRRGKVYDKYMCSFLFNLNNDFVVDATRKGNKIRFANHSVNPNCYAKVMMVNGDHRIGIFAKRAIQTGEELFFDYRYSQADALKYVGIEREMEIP
Chain of EZH2 (O75530 whole entry partner): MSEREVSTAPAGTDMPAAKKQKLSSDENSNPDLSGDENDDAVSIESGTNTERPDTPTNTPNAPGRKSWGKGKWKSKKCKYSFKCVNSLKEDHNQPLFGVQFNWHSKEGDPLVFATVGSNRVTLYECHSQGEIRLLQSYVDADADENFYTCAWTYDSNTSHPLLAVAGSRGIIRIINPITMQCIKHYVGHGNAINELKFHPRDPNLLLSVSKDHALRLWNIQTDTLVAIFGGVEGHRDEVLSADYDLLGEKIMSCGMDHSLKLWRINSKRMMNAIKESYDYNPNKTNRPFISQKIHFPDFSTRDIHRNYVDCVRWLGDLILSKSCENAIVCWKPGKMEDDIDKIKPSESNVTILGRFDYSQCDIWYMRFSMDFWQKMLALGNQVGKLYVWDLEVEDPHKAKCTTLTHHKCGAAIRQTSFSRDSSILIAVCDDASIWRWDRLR
Chain of EZH2 (Q15022 whole entry partner): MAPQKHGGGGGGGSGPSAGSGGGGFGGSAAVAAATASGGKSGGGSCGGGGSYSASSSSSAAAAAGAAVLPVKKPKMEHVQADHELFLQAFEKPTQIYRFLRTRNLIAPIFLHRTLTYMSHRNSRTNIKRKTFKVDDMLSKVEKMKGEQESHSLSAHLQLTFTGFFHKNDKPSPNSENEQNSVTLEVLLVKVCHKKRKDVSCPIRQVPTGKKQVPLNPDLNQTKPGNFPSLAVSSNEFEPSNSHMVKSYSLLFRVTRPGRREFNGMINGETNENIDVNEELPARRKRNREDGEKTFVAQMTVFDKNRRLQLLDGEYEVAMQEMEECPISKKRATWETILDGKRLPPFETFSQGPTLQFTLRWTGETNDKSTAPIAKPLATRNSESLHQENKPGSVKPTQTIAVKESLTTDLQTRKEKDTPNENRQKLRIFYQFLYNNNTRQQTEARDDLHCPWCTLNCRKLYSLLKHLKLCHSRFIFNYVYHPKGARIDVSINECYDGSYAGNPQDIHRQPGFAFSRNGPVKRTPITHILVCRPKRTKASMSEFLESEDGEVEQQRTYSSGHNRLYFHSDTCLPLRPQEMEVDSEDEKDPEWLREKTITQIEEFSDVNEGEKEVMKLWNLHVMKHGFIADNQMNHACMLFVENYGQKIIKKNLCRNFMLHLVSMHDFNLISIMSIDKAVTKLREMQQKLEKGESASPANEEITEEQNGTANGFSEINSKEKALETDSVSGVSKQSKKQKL

SMILES | IC50 [µM]
CC1(C)CC(NC(=O)c2ccc(Oc3ccccc3C#N)c(Cl)c2)CC(C)(C)N1[O] [Compound I-402] | > 80

Same assay, conditions: rPRC2, biotinylated oligonucleosome substrates, 3H SAM; read-out: EZH2 IC50

SMILES | IC50 [µM]
COc1ccncc1-c1ccccc1Oc1ccc(C(=O)NC2CC(C)(C)NC(C)(C)C2)cc1Cl [Compound I-280] | > 80
CC1(C)CC(NC(=O)c2ccc(SC3CCCCC3)cc2)CC(C)(C)N1 [Compound I-145] | 20 to 80
CC1(C)CC(NC(=O)c2ccc(Oc3ccccc3)c(O)c2)CC(C)(C)N1 [Compound I-268] | 20 to 80
CC1(C)CC(NC(=O)c2ccc(C3(c4ccccc4)CC3)cc2)CC(C)(C)N1 [Compound I-437] | > 80
Cc1ccc(Oc2ccc(C(=O)NC3CC(C)(C)NC(C)(C)C3)cc2)cc1 [Compound I-92] | > 80
CC1(C)CC(NC(=O)c2ccc(Oc3ccc(I)cn3)cc2)CC(C)(C)N1 [Compound I-68, 4-(5-Iodopyridin-2-yloxy)-N-(2,2,6,6-tetramethylpiperidin-4-yl)benzamide] | > 80
CC1(C)CC(NC(=O)c2ccc(COc3ccnc(Cl)c3)cc2)CC(C)(C)N1 [Compound I-66] | 20 to 80
CC1(C)CC(NC(=O)c2ccc(C(=O)Nc3ccccc3)cc2)CC(C)(C)N1 [Compound I-160] | > 80
O=C(N[C@H]1CCN(Cc2ccccc2)C1)c1ccc(Oc2ccccc2)cc1 (stereo in doubt) [Compound I-101] | > 80
CC1(C)CC(NC(=O)c2ccc(CNc3ccccc3)cc2)CC(C)(C)N1 [Compound I-106, 4-((Phenylamino)methyl)-N-(2,2,6,6-tetramethylpiperidin-4-yl)benzamide] | > 80
CC1(C)CC(NC(=O)c2ccc(COc3cccc(-c4cncnc4)c3)cc2)CC(C)(C)N1 [Compound I-32] | 20 to 80
CC1(C)CC(NC(=O)c2ccc(Oc3ccc(Cl)cc3)cc2)CC(C)(C)N1 [Compound I-91] | > 80
CC1(C)CC(NC(=O)c2ccc(Oc3ccccc3C#N)c(Cl)c2)C(F)(F)C(C)(C)N1 (stereo not shown) [Compound I-418] | 20 to 80
CC1(C)CC(NC(=O)c2ccc(OCCc3ccccc3)cc2)CC(C)(C)N1 [Compound I-84] | > 80
CC1(C)CC(NC(=O)c2ccc(Oc3cnccn3)cc2)CC(C)(C)N1 [Compound I-78] | > 80
CC1(C)CC(NC(=O)c2ccc(COc3ccc(C#N)cc3)cc2)CC(C)(C)N1 [Compound I-67] | 20 to 80
Cc1ccc(CO)cc1Oc1ccc(C(=O)NC2CC(C)(C)NC(C)(C)C2)cc1 [Compound I-43] | 20 to 80
CC1(C)CC(NC(=O)c2ccc(Oc3ccc(O)cc3)cc2)CC(C)(C)N1 [Compound I-25] | 20 to 80
CC1(C)CC(NC(=O)c2ccc(Oc3ccccn3)cc2)CC(C)(C)N1 [Compound I-56] | 20 to 80

SMILES | IC50 [µM]
CC1(C)CC(NC(=O)c2ccc(COc3ccccc3)c(Br)c2)CC(C)(C)N1 [Compound I-215] | 20 to 80
CC1(C)CC(NC(=O)c2ccc(COc3cccc(-c4cccnc4N)c3)cc2)CC(C)(C)N1 [Compound I-47] | 20 to 80
CC1(C)CC(NC(=O)c2ccc(COc3cccc(C#N)c3)cc2)CC(C)(C)N1 [Compound I-76] | > 80
CC1(C)CC(NC(=O)c2ccc(Oc3cccnc3)cc2)CC(C)(C)N1 [Compound I-21] | 20 to 80
CC1(C)CC(NC(=O)c2ccc(COc3cccc(-c4cccc(O)c4)c3)cc2)CC(C)(C)N1 [Compound I-30] | 20 to 80
CC1(C)CC(NC(=O)c2ccccc2Oc2ccccc2)CC(C)(C)N1 [Compound I-95] | > 80
CC1(C)CC(NC(=O)c2ccc(-n3ccc4ccccc43)c(Cl)c2)CC(C)(C)N1 [Compound I-328] | 20 to 80
CC1(C)CC(NC(=O)c2ccc(Oc3ccccc3)cc2F)CC(C)(C)N1 [Compound I-203] | > 80
CC1(C)CC(NC(=O)c2ccc(Oc3ccc(F)cc3C#N)c(Cl)c2)CC(C)(C)N1 [Compound I-359] | 5 to 20
CN1C2CCC1CC(NC(=O)c1ccc(Oc3ccccc3)cc1)C2 (stereo not shown) [Compound I-114] | > 80
CC1(C)CC(NC(=O)c2ccc(COc3cccc(-c4ccc(F)nc4)c3)cc2)CC(C)(C)N1 [Compound I-19] | 5 to 20
COc1ncccc1-c1cccc(OCc2ccc(C(=O)NC3CC(C)(C)NC(C)(C)C3)cc2)c1 [Compound I-55] | 20 to 80
COc1ccc(Oc2ccc(C(=O)NC3CC(C)(C)NC(C)(C)C3)cc2)cc1 [Compound I-97] | > 80
COC(=O)c1ccc(COc2ccc(C(=O)NC3CC(C)(C)NC(C)(C)C3)cc2)cc1 [Compound I-117] | > 80
Cc1ccc(C#N)c(Oc2ccc(C(=O)NC3CC(C)(C)NC(C)(C)C3)cc2)c1 [Compound I-158] | 20 to 80
CC1(C)CC(NC(=O)c2ccc(Oc3ccccc3-c3cccnc3N)c(Cl)c2)CC(C)(C)N1 [Compound I-271] | 5 to 20
CC1(C)CC(NC(=O)c2ccc(Oc3ccc4ncccc4c3)cc2)CC(C)(C)N1 [Compound I-172] | > 80
CN1CCC(N(C)C(=O)c2ccc(Oc3ccccc3)cc2)CC1 [Compound I-72] | > 80

Other lines, results leading:

IC50 [µM] | SMILES
5 to 20 | CC1(C)CC(NC(=O)c2ccc(Oc3ccccc3C#N)cc2F)CC(C)(C)N1 [Compound I-245]
5 to 20 | CC1(C)CC(NC(=O)c2ccc(Oc3cccc(C#N)c3)cc2)CC(C)(C)N1 [Compound I-17]
< 5 | COCc1cccc(Oc2ccc(C(=O)NC3CC(C)(C)NC(C)(C)C3)cc2Cl)c1C#N [Compound I-453]
< 5 | Cn1cc(-c2cccc(Oc3ccc(C(=O)NC4CC(C)(C)NC(C)(C)C4)cc3Cl)c2C#N)cn1 [Compound I-336]
5 to 20 | CC1(C)CC(NC(=O)c2ccc(Oc3ccccc3C(N)=O)c(Br)c2)CC(C)(C)N1 [Compound I-388]
< 5 | CC1(C)CC(NC(=O)c2ccc(Oc3cccc(CC#N)c3-c3cncnc3)c(Cl)c2)CC(C)(C)N1 [Compound I-444]
5 to 20 | Cc1ccccc1Oc1ccc(C(=O)NC2CC(C)(C)NC(C)(C)C2)cc1Cl [Compound I-325]
5 to 20 | CC1(C)CC(NC(=O)c2ccc(COc3cccc(-c4cccnc4)c3)cc2)CC(C)(C)N1 [Compound I-7]
5 to 20 | CC1(C)CC(NC(=O)c2ccc(Oc3ncccc3C#N)c(Cl)c2)CC(C)(C)N1 [Compound I-249]
< 5 | CC1(C)CC(NC(=O)c2ccc(Oc3ccccc3C#N)c(N3CCOCC3)c2)CC(C)(C)N1 [Compound I-196]
< 5 | CN1CCN(C(=O)CCc2cccc(Oc3ccc(C(=O)NC4CC(C)(C)NC(C)(C)C4)cc3Cl)c2C#N)CC1 [Compound I-555]
5 to 20 | CC1(C)CC(NC(=O)c2ccc(Oc3cccc4c3CCCC4)cc2)CC(C)(C)N1 [Compound I-181]
5 to 20 | CC(O)c1cccc(Oc2ccc(C(=O)NC3CC(C)(C)NC(C)(C)C3)cc2Cl)c1-c1ccncc1 (stereo not shown) [Compound I-400]
< 5 | CCc1cc(C(=O)NC2CC(C)(C)NC(C)(C)C2)ccc1Oc1ccccc1C#N [Compound I-265]
5 to 20 | CC1(C)CC(NC(=O)c2ccc(Oc3cccc(CN4CCCC4=O)c3)c(Cl)c2)CC(C)(C)N1 [Compound I-447]
< 5 | CC1(C)CC(NC(=O)c2ccc(Oc3cccc(OCC(N)=O)c3C#N)c(Cl)c2)CC(C)(C)N1 [Compound I-487]
< 5 | CC1(C)CC(NC(=O)c2ccc(Oc3ccccc3C#N)c(COc3ccccc3)c2)CC(C)(C)N1 [Compound I-239]
